From patent publication US20080220416A1, “Compositions for Inhibiting Cell Growth and Inducing Apoptosis in Cancer Cells and Methods of Use Thereof” (THE BOARD OF TRUSTEES OF THE UNIVERSITY OF ILLINOI, priority 2004, published 2008)
Peptide text beside a SMILES is read from it. * marks the point of attachment. Cbz = O=C(OCc1ccccc1)*

Legend:
Assay type in all cases: cell-based, human
[1] = test system: MDA-MB231 breast cancer cells; assay: Cytotoxicity and growth assay in MDA-MB231 breast cancer cells (SRB, TCA-precipitated protein); conditions: MDA-MB231; up to 3 days
Method: An invasive, estrogen-independent breast cancer cell line that spontaneously expresses high levels of Notch-1 and -4, MDA-MB231, and normal human breast cells were used to investigate whether inhibition of Notch activation or expression affects the biological behavior of breast cancer cells. Human Mammary Epithelial Cells (HMEC) were purchased from Clonetics and cultured in mammary epithelial cell basal medium (MEBM) supplemented with 52 μg/ml Bovine Pituitary Extract […], […] human recombinant Epidermal Growth Factor (hEGF), 5 μg/ml insulin, 0.5 μg/ml Hydrocortisone, 50 μg/ml Gentamicin and 50 μg/ml Amphotericin-B. MDA-MB231 (ATCC, Rockville, Md.) were cultured in DMEM medium with 10% FBS. Notch expression in HMEC and MDA-MB231 cells was silenced using highly specific RNAi. Double-stranded synthetic 21-mer RNA oligonucleotides (siRNAs) were purchased from Dharmacon (Lafayette, Colo.). […] Sequence specificity was determined by BLAST searches which determined the uniqueness of the sequences. Transfection of siRNAs was performed using Oligofectamine (Invitrogen) as recommended by the siRNA manufacturer (Dharmacon). Transfection efficiency was optimized and followed on parallel wells using DNA double stranded oligos of identical sequence to the siRNAs, labeled with biotin on one strand. Transfected cells were identified by Streptavidin-horseradish peroxidase staining (Vectastain) and counted. Transfection efficiencies around 80% were routinely obtained.
Cytotoxicity and growth of transfected cells were estimated by a standard assay used for cancer drug screening, through the total amount of TCA-precipitated cell proteins after drug treatment (Likhitwitayawuid, K et al., 1993, J Nat Prod 56:30-38): 200 μl of cell suspension (10^5 cells/ml) were added to each well in a 96-well plate. After incubation at, 37° C., in 5% CO2 (30 minutes to 72 hours depending on the time course chosen), 50 μl 50% trichloroacetic acid was added to each well. After incubation at 4° C. for 1 hour, precipitates were washed with water 4-5 times and air dried overnight. One hundred μl of SRB solution (0.4% sulforhodamine B in 1% acetic acid, filtered before use) was added to each well for 30 minutes. Wells were washed with 1% acetic acid 4-5 times and air dried. Two hundred μl 10 mM Tris base was added to each well. Plates were shaken for 5-10 minutes and OD at 490 nm (OD490) was recorded via ELISA reader. To assay matrix invasion, 300 μl of cell suspension (10^6 cells/mL in serum-free medium) were added to invasion inserts (BioCoat Matrigel Invasion Chambers, Becton Dickinson, Bedford, Mass.) and incubated for 22 hours at 37° C., 5% CO2. […] After removal of the non-invading cells from the interior of the inserts, stained invading cells were lysed in 10% acetic acid and OD595 was determined. […]

[2] = test system: MDA-MB231 breast cancer cells; assay: Extracellular matrix invasion of MDA-MB231 cells (Matrigel Invasion Chambers); conditions: 25 μM, 22 h
Method: Cytotoxicity and growth of transfected cells were estimated by a standard assay used for cancer drug screening, through the total amount of TCA-precipitated cell proteins after drug treatment (Likhitwitayawuid, K et al., 1993, J Nat Prod 56:30-38): 200 μl of cell suspension (10^5 cells/ml) were added to each well in a 96-well plate. After incubation at, 37° C., in 5% CO2 (30 minutes to 72 hours depending on the time course chosen), 50 μl 50% trichloroacetic acid was added to each well. After incubation at 4° C. for 1 hour, precipitates were washed with water 4-5 times and air dried overnight. One hundred μl of SRB solution (0.4% sulforhodamine B in 1% acetic acid, filtered before use) was added to each well for 30 minutes. Wells were washed with 1% acetic acid 4-5 times and air dried. Two hundred μl 10 mM Tris base was added to each well. Plates were shaken for 5-10 minutes and OD at 490 nm (OD490) was recorded via ELISA reader. To assay matrix invasion, 300 μl of cell suspension (10^6 cells/mL in serum-free medium) were added to invasion inserts (BioCoat Matrigel Invasion Chambers, Becton Dickinson, Bedford, Mass.) and incubated for 22 hours at 37° C., 5% CO2. Cells were stained with 0.9% crystal violet in 10% ethanol for 20 minutes. Inserts were dipped in water several times and air dried. After removal of the non-invading cells from the interior of the inserts, stained invading cells were lysed in 10% acetic acid and OD595 was determined.
Notch silencing was confirmed by Western blot as described above in Example 15 using commercial goat polyclonal antibodies from Santa Cruz Biotechnology to Notch-1 (C-20, Cat# sc-6014 S). For the Western blot analyses, MDA-MB231 cells were treated with 25 μM IL-X for 48 h or with 0.5, 1 or 2 μM z-Leu-Leu-Nle-CHO for 24 h. Cytotoxicity and matrix invasion assays were performed as described above in Example 15. For the cytotoxicity assays, MDA-MB231 cells were treated with […] IL-X for up to 3 days or with 0-20 μM z-Leu-Leu-Nle-CHO for up to 4 days. […]

Notch-1 = assay: Notch Western blot in MDA-MB231 cells; conditions: MDA-MB231; 25 μM; 48 hours
Method: Notch silencing was confirmed by Western blot using commercial goat polyclonal antibodies from Santa Cruz Biotechnology to Notch-1 (C-20, Cat# sc-6014 S) and Notch-4 (C-19, Cat# sc-8644). Total cell lysates were prepared as follows: cells grown on 6 cm dishes were scraped in lysis buffer containing 1×PBS, 1% Nonidet P40, 0.5% deoxycholate, 0.1% SDS, freshly added aprotinin (45 μg/ml), phenylmethylsulfonyl fluoride (10 μg/ml), and sodium orthovanadate (10 μM). Lysates were sonicated 4 times for 5 seconds each, followed by 30 minutes incubation on ice. Lysates were centrifuged at 10,000 g for 20 minutes at 4° C. Supernatants were used as total cell lysates. Nuclear extracts were prepared as follows: 10,000,000 cells were pelleted, washed, and quickly frozen in a dry ice bath. Pellets were thawed by adding 100 μl of buffer 1 (10 mM HEPES, pH 7.9, 10 mM KCl, 1.5 mM MgCl2, 1 mM DTT). Nuclei were pelleted and lysed in 15 μl Buffer 2 (20 mM HEPES, pH7.9, 0.4 M NaCl, 1.5 mM MgCl2, 25% glycerol, 0.2 mM EDTA, 1 mM DTT, and 0.5 mM PMSF). Lysates were diluted in 50-70 μl Buffer 3 (20 mM HEPES, pH 7.9, 50 mM KCl, 20% glycerol, 0.2 mM EDTA, 1 mM DTT, 0.5 mM PMSF). Protein concentrations were estimated using the BCA protein assay (Pierce). Supernatants were boiled in reducing SDS sample buffer (Novex). Twenty μg protein per lane were run on a 3-8% Tris acetate gel (Invitrogen) in Tris Acetate Reducing Running Buffer (Novex). Protein bands were transferred onto PVDF membranes (BioRad) using transfer buffer (Novex). Membranes were then blocked overnight at 4° C. in 2% blocking solution in TBS (Roche). Primary antibodies were diluted in 2% Boehringer blocking solution (total volume 5 ml). Membranes were incubated for one hour at room temperature with shaking, then washed 6 times for 10 minutes each in TBS wash buffer. Membranes were incubated in secondary antibody in 2% of blocking solution for 30 minutes, then washed 6 times for 10 minutes each at RT in wash buffer. Bands were detected with chemiluminescent reagent (Roche) according to the manufacturer's directions. […]

normal melanocytes = assay: Proteasome inhibitors, apoptosis of normal melanocyte cultures (Annexin V FITC flow cytometry); conditions: MC-005, MC-006, MC-008; 24 hrs; 1, 5 or 10 μM
Method: (§1) The proteasome inhibitors lactacystin, MG-132, and bortezomib were evaluated for the ability to induce apoptosis in malignant melanoma cell lines (n=3) including an early passage line, RJ002L. MG-132 was obtained from Calbiochem (La Jolla, Calif.) and dissolved in DMSO. Lactacystin was purchased from Sigma Chemical Co. (St. Louis, Mo.) and dissolved in PBS. Bortezomib was obtained from a pharmacy as VELCADE (bortezomib) for Injection from a single use vial for intravenous use only (Millennium Pharmaceuticals, Cambridge, Mass.). A cell line with wild-type p53 (RJ002L) and two melanoma cell lines with mutant p53 alleles (C8161 and MUM2B) were included in this study. Two additional melanoma cell lines were also used: cutaneous SK-MeI-28 cells and primary, early passage MG012 cells. In addition, five normal melanocyte culture cell lines (MC-005, MC-006, MC-008, MC-009 and MC-011) were examined. Prior to testing, the melanoma cell lines were maintained in RPMI supplemented with 10% FBS. Normal human melanocytes were isolated from neonatal foreskins as previously described (Qin J et al., 2004, Mol Cancer Ther 3:895-902, 2004) and cultured with medium 154 containing growth supplements (Cascade Biologics, Portland, Oreg.).
To assess the effect of proteasome inhibitors on the cell lines, the cells were grown in suitable culture media as described above. […]
Following treatment with the proteasome inhibitors, the melanoma and melanocyte cell cultures were assayed for apoptotic cells using the APO TARGET Annexin V FITC staining kit (Biosource, Camarillo, Calif.) according to the manufacturer's instructions followed by flow cytometric analysis using FACScaliber (Becton Dickinson, Palo Alto, Calif.) as described in Qin, J. et al., 2001, Nat Med 7: 385-386. In some cases, cell cycle and apoptosis analysis was measured using propidium iodide staining and flow cytometry as described. […] For cell analysis, DNA histograms were analyzed using MultiCycle for Windows (Phoenix Flow Systems, San Diego, Calif.) as described in Denning, M. F. et al., 1998, J Biol Chem 273: 29995-30002.

melanoma cell lines = assay: Proteasome inhibitors, apoptosis of melanoma cell lines (Annexin V FITC flow cytometry); conditions: RJ002L, MG012, C8161, MUM2B, SK-MeI-28; 1-10 μM; 24 hrs
Method: as §1
To assess the effect of proteasome inhibitors on the cell lines, the cells were grown in suitable culture media as described above. Highly proliferating cells (i.e., cells that had reached approximately 30% confluency) were exposed to the inhibitors as described below. The culture media was replenished with media containing proteasome inhibitors at various concentrations and the cells were incubated for 24 hours prior to harvesting the cells for further analysis.
Following treatment with the proteasome inhibitors, the melanoma and melanocyte cell cultures were assayed for apoptotic cells using the APO TARGET Annexin V FITC staining kit (Biosource, Camarillo, Calif.) according to the manufacturer's instructions followed by flow cytometric analysis using FACScaliber (Becton Dickinson, Palo Alto, Calif.) as described in Qin, J. et al., 2001, Nat Med 7: 385-386. In some cases, cell cycle and apoptosis analysis was measured using propidium iodide staining and flow cytometry as described. Cells with DNA content less than the G0 amount of untreated cells were considered apoptotic. For cell analysis, DNA histograms were analyzed using MultiCycle for Windows (Phoenix Flow Systems, San Diego, Calif.) as described in Denning, M. F. et al., 1998, J Biol Chem 273: 29995-30002.

NOXA [3] = assay: Western blot of NOXA after proteasome inhibitors in melanoma cells; conditions: RJ002L, C8161, MUM2B; 1 μM or 10 μM; 18 hrs
Source text: (§2) A panel of melanoma cells were used to assess the effect of bortezomib on pro-apoptotic proteins. RJ002L, C8161, MUM2B and SK-MeI-28 melanoma cells, as well as two normal melanocyte cultures (MC-010 and MC-012) were examined. Prior to testing, the RJ002L melanoma cell lines were maintained in RPMI supplemented with 10% FBS. Late passage melanoma cell lines (C8161, MUM2B and SK-Me1028) were utilized as previously described (Welch D et al., 1991, Int J Cancer 47:227-237; Bittner M et al., 2000, Nature 406:536-540). Normal human melanocytes were isolated from neonatal foreskins and cultured as previously described (Qin J et al., 2004, Mol Cancer Ther 3:895-902). Proliferating cells were examined by Western blot analysis before and after 18 hrs of exposure to bortezomib (1 μM). Antibodies were obtained as follows: Bad (SC-8044), Bcl-2 (SC-7382), Bcl-xL (SC-634), Mcl-1 (SC-819), Bak (SC-832) from Santa Cruz Biotechnology (Santa Cruz, Calif.); NOXA (OP180) from Calbiochem; Bid, Bim and PUMA from Cell Signaling (Beverly, Mass.); BAX from Upstate (Charlottesville, Va.); and β-actin from ICN (Irvine, Calif.). For the Western blot analysis, whole cell extracts were prepared as previously described (Denning M et al., 1998, J Biol Chem 273:29995-30002). Briefly, cells were harvested by scraping monolayers and washed with PBS. Cell pellets were resuspended in CHAPS buffers containing a protease inhibitor cocktail. Extracts were vigorously shaken at 4° C. for 15 min followed by centrifugation. Supernatants were collected and protein concentration determined using Bio-Rad reagent. Thirty to 50 microgram protein samples were resolved by SDS-polyacrylamide gel electrophoresis and transferred to polyvinylidene difluoride membrane by electroblotting. Membranes were probed with the various primary antibodies overnight at 4° C., followed by detection using ECL reagents (Amersham Pharmacia Biotech, Piscataway, N.J.) according to manufacturer's instructions.
(§3) Two other proteasome inhibitors, lactasytsin and MG-132, were tested for the ability to induce NOXA in melanoma cells and melanocytes. […]

NOXA [4] = assay: Western blot of NOXA after proteasome inhibitors in normal melanocytes; conditions: MC-004, MC-005, MC-006, MC-008; 1 μM or 10 μM; 18 hrs
Source text: as §2, §3

SMILES	concentration above which cytotoxic [1]	in vitro matrix invasion [2]	molecular forms of Notch-1 (Notch-1)	cells undergoing apoptosis (normal melanocytes)	apoptotic response to increasing concentrations (melanoma cell lines)	NOXA induction (NOXA [3])	NOXA induction (NOXA [4])
CCC(C)C(NC(=O)OCc1ccccc1)C(=O)NC(C=O)CC(C)C (stereo not drawn) [IL-X, cbz-IL-CHO] (Cbz-Ile-Leu-aldehyde; configuration not given here)	above 100 μM	significantly reduced in vitro matrix invasion	apparent reduction in all molecular forms of Notch-1	–	–	–	–
CC(=O)N[C@@H](CSC(=O)[C@]1([C@@H](O)C(C)C)NC(=O)[C@H](C)[C@@H]1O)C(=O)O [lactacystin]	–	–	–	no more than 10%	significantly enhanced apoptotic responses	induced high NOXA levels	no induction of NOXA in any of the normal melanocytes
